This note sets out measurements from patent publication US20260001914A1, “MACROCYCLIC PEPTIDES TARGETING KRAS” (Merck Sharp & Dohme LLC, priority 2022, published 2026).

Structures are written as SMILES. *1 amine or outer side, *2 acyl side, *3 side chain or, on linkers, in order; H or OH if unused. Where a SMILES comes first, the peptide text is derived from it. Bridges are numbered along the chain shown (N, C = ends). [ ]: non-standard residue; d: D form. X34 = O=C(C[C@@H](Cc1ccccc1)C(=O)[*:2])C12CC(CN[*:1])(C1)C2; NMeNva(5-imidazol-1-yl) = CN[C@@H](CCCn1ccnc1)C(=O)O; Phe(4-guanidino) = N=C(N)Nc1ccc(C[C@H](N)C(=O)O)cc1; Ala(pyrimidin-5-yl) = N[C@@H](Cc1cncnc1)C(=O)O; Phe(3-COOH) = N[C@@H](Cc1cccc(C(=O)O)c1)C(=O)O; X6 = O=C([C@H](Cc1cnn(C2COC2)c1)N[*:1])[*:2]; X8 = CN([C@@H](Cc1ccc(F)nc1)C(=O)[*:2])[*:1]; Ala(2-pyrazinyl) = N[C@@H](Cc1cnccn1)C(=O)O; NMePhe(4-F) = CN[C@@H](Cc1ccc(F)cc1)C(=O)O; X67 = O=C([C@H](Cc1ncc(Cl)cn1)N[*:1])[*:2]; Bip = N[C@@H](Cc1ccc(-c2ccccc2)cc1)C(=O)O; X3 = CN([C@@H](Cc1cncnc1)C(=O)[*:2])[*:1]; X11 = CC(C)(F)CC[C@H](N[*:1])C(=O)[*:2]; X46 = O=C([C@H](Cc1cccnc1F)N[*:1])[*:2]; NMeAha = CN[C@@H](CCN=[N+]=[N-])C(=O)O; 1Nal = N[C@@H](Cc1cccc2ccccc12)C(=O)O; NHCH2CH2SCH2CO = O=C(CSCCN[*:1])[*:2]; X21 = O=C([C@@H]1C[C@H]1CN[*:1])[*:2]; X47 = O=C([C@H](Cc1ccoc1)N[*:1])[*:2]; Phe(2-F) = N[C@@H](Cc1ccccc1F)C(=O)O; NMe3Pal = CN[C@@H](Cc1cccnc1)C(=O)O; X1 = O=C(C12CC(CN[*:1])(C1)C2)[*:2]; hTyr = N[C@@H](CCc1ccc(O)cc1)C(=O)O; NMeCha = CN[C@@H](CC1CCCCC1)C(=O)O; Ala(cPr) = N[C@@H](CC1CC1)C(=O)O; NMeF = CN[C@@H](Cc1ccccc1)C(=O)O; PhLac = O=C(O)[C@@H](O)Cc1ccccc1; 3Pal = N[C@@H](Cc1cccnc1)C(=O)O; Ahp(2) = CCCCC[C@H](N)C(=O)O; Cba = N[C@@H](CC1CCC1)C(=O)O; hLeu = CC(C)CC[C@H](N)C(=O)O; hLys = NCCCCC[C@H](N)C(=O)O; αMeC = C[C@](N)(CS)C(=O)O; NMeA = CN[C@@H](C)C(=O)O; Nle = CCCC[C@H](N)C(=O)O; Nva = CCC[C@H](N)C(=O)O

In the assay the target is KRAS-G12D protein (Homo sapiens, UniProt P01116, G12D). Briefly: SOS-mediated nucleotide exchange assay (BODIPY-GDP / Tb-streptavidin TR-FRET). It is filed as biochemical. A general note: In TR-FRET formats the signal depends on donor and acceptor labels being close together.
Chain of KRAS-G12D protein (P01116 1-188 isoform P01116-2 G12D): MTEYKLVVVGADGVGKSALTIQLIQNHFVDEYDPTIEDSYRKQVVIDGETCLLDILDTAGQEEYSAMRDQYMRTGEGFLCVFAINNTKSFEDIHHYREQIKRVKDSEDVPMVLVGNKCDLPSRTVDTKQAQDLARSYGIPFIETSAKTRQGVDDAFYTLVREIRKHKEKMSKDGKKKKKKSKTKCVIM
For the compound `CCCCC[C@@H]1NC(=O)[C@H](Cc2ccoc2)NC(=O)[C@H](CC2CCC2)NC(=O)[C@H](Cc2cccnc2)NC(=O)[C@H](CCCNC(=N)N)NC(=O)[C@H](Cc2ccccc2)NC(=O)CSC[C@@](C)(C(N)=O)NC(=O)[C@H](Cc2ccccc2)N(C)C1=O` [compound 374, cyclo(F-R-3Pal-cBuA-Ala3Fur-Ahp-NMeF-aMeCl-ClAc)] ({CH2CO}-FR[3Pal][Cba][X47][Ahp(2)][NMeF][αMeC]-NH2; thioether N-8), a half-maximal response (EC50) required 69.8 nM. With `CCCC[C@@H]1NC(=O)[C@H](Cc2cncnc2)NC(=O)[C@H](C)N(C)C(=O)[C@H](Cc2ccccc2)OC(=O)C23CC(CNC(=O)[C@H](Cc4cccnc4)N(C)C(=O)[C@H](CCCC)NC(=O)[C@H](Cc4ccccc4F)NC1=O)(C2)C3` [compound 237, cyclo(FLac-NMeA-PyrimAla-Nle-Phe2F-Nle-NMe3Pal-amBCP)] (cyclo([NMe3Pal][X1][PhLac][NMeA][Ala(pyrimidin-5-yl)][Nle][Phe(2-F)][Nle])) the figure was 33.7 nM. With `CCCC[C@@H]1NC(=O)[C@H](Cc2cccnc2)NC(=O)[C@H](C)N(C)C(=O)[C@H](Cc2ccccc2)OC(=O)C23CC(CNC(=O)[C@H](CC4CCCCC4)N(C)C(=O)[C@H](CCCC)NC(=O)[C@H](Cc4ccccc4F)NC1=O)(C2)C3` [compound 232, cyclo(FLac-NMeA-3Pal-Nle-Phe2F-Nle-NMeCha-amBCP)] (cyclo([3Pal][Nle][Phe(2-F)][Nle][NMeCha][X1][PhLac][NMeA])) the figure was 2930 nM; with `CCCC[C@@H]1NC(=O)[C@H](Cc2ncc(Cl)cn2)NC(=O)[C@H](C)N(C)C(=O)[C@H](Cc2ccccc2)OC(=O)C23CC(CNC(=O)[C@H](Cc4ccccc4)N(C)C(=O)[C@H](CCCC)NC(=O)[C@H](Cc4ccccc4F)NC1=O)(C2)C3` [compound 321, cyclo(FLac-NMeA-Ala2Pyrim5Cl-Nle-Phe2F-Nle-NMeF-amBCP)] (cyclo([NMeA][X67][Nle][Phe(2-F)][Nle][NMeF][X1][PhLac])), 617 nM; with `CCCC[C@@H]1NC(=O)[C@H](Cc2cccnc2)NC(=O)[C@H](C)N(C)C(=O)[C@H](Cc2cccnc2)NC(=O)C23CC(CNC(=O)[C@H](Cc4cccnc4)N(C)C(=O)[C@H](CCCC)NC(=O)[C@H](Cc4ccccc4F)NC1=O)(C2)C3` [compound 163, cyclo(3Pal-NMeA-3Pal-Nle-Phe2F-Nle-NMe3Pal-amBCP)] (cyclo([3Pal][NMeA][3Pal][Nle][Phe(2-F)][Nle][NMe3Pal][X1])), 3060 nM.

Compound `CCCCC[C@@H]1NC(=O)[C@H](Cc2ccc(OC)cc2)NC(=O)[C@H](CC2CCC2)NC(=O)[C@H](Cc2cccnc2)NC(=O)[C@H](CCCNC(=N)N)NC(=O)[C@H](Cc2ccccc2)NC(=O)CSC[C@@](C)(C(N)=O)NC(=O)[C@H](Cc2ccccc2)N(C)C1=O` [compound 347, cyclo(F-R~3Pal-cBuA-TyrOMe-Ahp-NMeF-aMeCl-ClAc)] registered a concentration for a half-maximal effect (EC50) of 5.72 nM.

In turn, `CCCC[C@@H]1NC(=O)[C@H](CCCCN)NC(=O)[C@H](CCCNC(=N)N)NC(=O)[C@H](Cc2cccc3ccccc23)NC(=O)CSCCNC(=O)[C@H](Cc2ccccc2)N(C)C(=O)[C@H](CCCC)NC(=O)[C@H](Cc2cccc(C(=O)O)c2)NC1=O` [compound 197, cyclo(1Nal-R-K-Nle-Phe3COOH-Nle-NMeF-Cysteamine)-ClAc] (cyclo([1Nal]RK[Nle][Phe(3-COOH)][Nle][NMeF][NHCH2CH2SCH2CO])) showed an EC50 of 2120 nM. With `CCCC[C@@H]1NC(=O)[C@H](Cc2cncnc2)NC(=O)[C@H](C)N(C)C(=O)[C@H](Cc2ccccc2)OC(=O)C23CC(CNC(=O)[C@H](Cc4ccc(F)cc4)N(C)C(=O)[C@H](CCCC)NC(=O)[C@H](Cc4ccccc4F)NC1=O)(C2)C3` [compound 173, cyclo(FLac-NMeA-PyrimAla-Nle-Phe2F-Nle-NMePhe4F-amBCP)] (cyclo([NMeA][Ala(pyrimidin-5-yl)][Nle][Phe(2-F)][Nle][NMePhe(4-F)][X1][PhLac])) the figure was 12.5 nM; with `CCCC[C@@H]1NC(=O)[C@H](Cc2cncnc2)NC(=O)[C@H](CCCn2ccnc2)N(C)C(=O)[C@H](Cc2ccccc2)OC(=O)C23CC(CNC(=O)[C@H](Cc4cccnc4)N(C)C(=O)[C@H](CCCC)NC(=O)[C@H](Cc4ccccc4F)NC1=O)(C2)C3` [compound 240, cyclo(FLac-NMeNvalmid-PyrimAla-Nle-Phe2F-Nle-NMe3Pal-amBCP)] (cyclo([NMe3Pal][X1][PhLac][NMeNva(5-imidazol-1-yl)][Ala(pyrimidin-5-yl)][Nle][Phe(2-F)][Nle])), 27.2 nM; with `CCCC[C@@H]1NC(=O)[C@H](Cc2cccnc2)NC(=O)[C@H](CCCn2ccnc2)N(C)C(=O)[C@H](Cc2ccccc2)NC(=O)[C@@H]2C[C@H]2CNC(=O)[C@H](Cc2cccnc2)N(C)C(=O)[C@H](CCCC)NC(=O)[C@H](Cc2ccccc2F)NC1=O` [compound 251, cyclo(F-NMeNvalmid-3Pal-Nle-Phe2F-Nle-NMe3Pal-tamcPr)] (cyclo(F[NMeNva(5-imidazol-1-yl)][3Pal][Nle][Phe(2-F)][Nle][NMe3Pal][X21])), 272 nM. With `C[C@H]1C(=O)N[C@@H](Cc2cncnc2)C(=O)N[C@@H](CC2CC2)C(=O)N[C@@H](Cc2ccccc2F)C(=O)N[C@@H](CCC(C)(C)F)C(=O)N(C)[C@@H](Cc2ccccc2)C(=O)NCC23CC(C2)(C3)C(=O)C[C@@H](Cc2ccccc2)C(=O)N1C` [compound 273, cyclo(CPhe-NMeA-PyrimAla-cPrA-Phe2F-hL3F-NMeF-amBCP)] (cyclo([Ala(cPr)][Phe(2-F)][X11][NMeF][X34][NMeA][Ala(pyrimidin-5-yl)])) the figure was 1 nM; with `CCCC[C@@H]1NC(=O)[C@H](Cc2cncnc2)NC(=O)[C@H](CCN=[N+]=[N-])N(C)C(=O)[C@H](Cc2ccccc2)OC(=O)C23CC(CNC(=O)[C@H](Cc4cccnc4)N(C)C(=O)[C@H](CCCC)NC(=O)[C@H](Cc4ccccc4F)NC1=O)(C2)C3` [compound 242, cyclo(FLac-NMeDabN3-PyrimAla-Nle-Phe2F-Nle-NMe3Pal-amBCP)] (cyclo([NMe3Pal][X1][PhLac][NMeAha][Ala(pyrimidin-5-yl)][Nle][Phe(2-F)][Nle])), 80.9 nM; with `CCCC[C@@H]1NC(=O)[C@H](Cc2cnccn2)NC(=O)[C@H](C)N(C)C(=O)[C@H](Cc2ccccc2)OC(=O)C23CC(CNC(=O)[C@H](Cc4ccccc4)N(C)C(=O)[C@H](CCCC)NC(=O)[C@H](Cc4ccccc4F)NC1=O)(C2)C3` [compound 322, cyclo(FLac-NMeA-AlaPyrz-Nle-Phe2F-Nle-NMeF-amBCP)] (cyclo([NMeA][Ala(2-pyrazinyl)][Nle][Phe(2-F)][Nle][NMeF][X1][PhLac])), 2310 nM. With `CCCC[C@@H]1NC(=O)[C@H](CCCCCN)NC(=O)[C@H](CCCNC(=N)N)NC(=O)[C@H](Cc2ccccc2)NC(=O)CSCCNC(=O)[C@H](Cc2ccccc2)N(C)C(=O)[C@H](CCc2ccc(O)cc2)NC(=O)[C@H](Cc2ccc(-c3ccccc3)cc2)NC1=O` [compound 194, cyclo(F-R-hK-Nle-Bip-hY-NMeF-Cysteamine-ClAc)] (cyclo([Bip][hTyr][NMeF][NHCH2CH2SCH2CO]FR[hLys][Nle])) the figure was 4490 nM; with `CCCC[C@@H]1NC(=O)[C@H](Cc2cccnc2)NC(=O)[C@H](CCCn2ccnc2)N(C)C(=O)[C@H](Cc2ccccc2)N(C)C(=O)[C@@H]2C[C@H]2CNC(=O)[C@H](Cc2cccnc2)N(C)C(=O)[C@H](CCCC)NC(=O)[C@H](Cc2ccccc2F)NC1=O` [compound 256, cyclo(NMeF-NMeNvaImid-3Pal-Nle-Phe2F-Nle-NMe3Pal-tamcPr)] (cyclo([3Pal][Nle][Phe(2-F)][Nle][NMe3Pal][X21][NMeF][NMeNva(5-imidazol-1-yl)])), 7650 nM. Consider `CC(C)CC[C@@H]1NC(=O)[C@H](Cc2ccccc2F)NC(=O)[C@H](CC2CC2)NC(=O)[C@H](Cc2cncnc2)NC(=O)[C@H](C)N(C)C(=O)[C@H](Cc2ccccc2)OC(=O)C23CC(CNC(=O)[C@H](Cc4ccc(F)nc4)N(C)C1=O)(C2)C3` [compound 339, cyclo(FLac-NMeA-PyrimAla-cPrA-Phe2F-hL-NMe3Pal4F-amBCP)] (cyclo([Ala(cPr)][Phe(2-F)][hLeu][X8][X1][PhLac][NMeA][Ala(pyrimidin-5-yl)])), for which the EC50 is 1 nM. Consider `CC(C)CC[C@@H]1NC(=O)[C@H](Cc2ccccc2F)NC(=O)[C@H](CC2CC2)NC(=O)[C@H](Cc2cnn(C3COC3)c2)NC(=O)[C@H](C)N(C)C(=O)[C@H](Cc2ccccc2)OC(=O)C23CC(CNC(=O)[C@H](Cc4cccnc4)N(C)C1=O)(C2)C3` [compound 301, cyclo(FLac-NMeA-AlaPyz1Ox-cPrA-Phe2F-hL-NMe3Pal-amBCP)] (cyclo([Ala(cPr)][Phe(2-F)][hLeu][NMe3Pal][X1][PhLac][NMeA][X6])), for which the 50% effective concentration (EC50) was 2.17 nM. With `CCCC[C@@H]1NC(=O)[C@H](Cc2ccc(OC)cc2)NC(=O)[C@H](CC(C)C)NC(=O)[C@H](Cc2ccc(NC(=N)N)cc2)NC(=O)[C@H](CCC)NC(=O)[C@H](Cc2ccccc2)NC(=O)CSC[C@H](C(N)=O)NC(=O)[C@H](Cc2ccccc2)N(C)C1=O` [compound 48, cyclo(F-Nva-Phe4Gn-L-TyrOMe-Nle-NMeF-dCl-ClAc)] ({CH2CO}-F[Nva][Phe(4-guanidino)]LY(Me)[Nle][NMeF][dC]-NH2; thioether N-8) the figure was 4320 nM; with `CCCCC[C@@H]1NC(=O)[C@H](Cc2ccc(OC)cc2)NC(=O)[C@H](CC2CCC2)NC(=O)[C@H](Cc2cccnc2)NC(=O)[C@H](CCCNC(=N)N)NC(=O)[C@H](Cc2ccccc2)NC(=O)CSC[C@@](C)(C(N)=O)NC(=O)[C@H](Cc2cncnc2)N(C)C1=O` [compound 376, cyclo(F-R-3Pal-cBuA-TyrOMe-Ahp-NMeAlaPyrim-aMeCl-ClAc)] ({CH2CO}-FR[3Pal][Cba]Y(Me)[Ahp(2)][X3][αMeC]-NH2; thioether N-8), 26.6 nM; with `CC(C)CC[C@@H]1NC(=O)[C@H](Cc2cccnc2F)NC(=O)[C@H](CC2CC2)NC(=O)[C@H](Cc2cncnc2)NC(=O)[C@H](C)N(C)C(=O)[C@H](Cc2ccccc2)OC(=O)C23CC(CNC(=O)[C@H](Cc4ccccc4)N(C)C1=O)(C2)C3` [compound 215, cyclo(FLac-NMeA-PyrimAla-cPrA-3Pal2F-hL-NMeF-amBCP)] (cyclo([Ala(cPr)][X46][hLeu][NMeF][X1][PhLac][NMeA][Ala(pyrimidin-5-yl)])), 31 nM.

By EC50 is commonly meant the concentration at which the effect is half-maximal.
